This is an account of results in patent publication US6756402B2, “Cyclipostins, process for their preparation and use thereof” (Aventis Pharma Deutschland GmbH, priority 2000, dated 2004).

Data set [1] concerns lipases. The following applies: background statement on the known methyl analogue; cited from earlier work.
Data set [2] concerns the target T1, hormone-sensitive lipase (HSL) (Rattus norvegicus, UniProt P15304).
T1 construct: Isolated rat lipocytes were obtained from epididymal fatty tissue of nontreated male rats; from tissue; host or cells: rat epididymal fat tissue lipocytes (Wistar), partially purified
T1 sequence (P15304 1-768 isoform P15304-2): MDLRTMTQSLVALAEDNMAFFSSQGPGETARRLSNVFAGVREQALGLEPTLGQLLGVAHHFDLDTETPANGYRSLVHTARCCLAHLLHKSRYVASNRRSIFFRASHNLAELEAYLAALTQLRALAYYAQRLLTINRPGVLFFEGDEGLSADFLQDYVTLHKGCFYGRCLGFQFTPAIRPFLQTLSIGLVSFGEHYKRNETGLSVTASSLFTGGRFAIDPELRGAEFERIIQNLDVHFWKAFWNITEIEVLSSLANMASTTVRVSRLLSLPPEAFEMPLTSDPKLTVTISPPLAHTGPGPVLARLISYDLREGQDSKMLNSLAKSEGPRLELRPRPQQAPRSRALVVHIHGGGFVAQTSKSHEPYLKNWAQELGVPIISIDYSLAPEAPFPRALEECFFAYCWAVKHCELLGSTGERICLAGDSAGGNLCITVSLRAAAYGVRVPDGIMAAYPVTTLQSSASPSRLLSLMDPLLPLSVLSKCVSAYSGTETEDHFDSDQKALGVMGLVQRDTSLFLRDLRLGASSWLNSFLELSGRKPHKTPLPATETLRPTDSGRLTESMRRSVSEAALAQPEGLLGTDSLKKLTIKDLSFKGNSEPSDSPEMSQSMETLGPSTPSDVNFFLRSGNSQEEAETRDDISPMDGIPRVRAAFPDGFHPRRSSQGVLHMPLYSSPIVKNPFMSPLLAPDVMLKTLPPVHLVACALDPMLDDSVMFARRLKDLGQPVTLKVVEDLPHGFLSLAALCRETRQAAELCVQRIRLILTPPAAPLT
As to the kind of experiment: Inhibition of partially purified hormone-sensitive lipase (HSL) from rats, [3H]trioleoylglycerol substrate. In kind it is biochemical. The protocol: Isolated rat lipocytes were obtained from epididymal fatty tissue of nontreated male rats (Wistar, 220-250 g) by collagenase treatment according to published procedures (e.g., S. Nilsson et al., Anal. Biochem. 158:399-407 (1986); G. Fredrikson et al., J. Biol. Chem. 256, 6311-6320 (1981); H. Tornquist et al., J. Biol. Chem. 251:813-819 (1976)). The lipocytes from 10 rats were washed three times by flotation with 50 ml of homogenization buffer in each case ([…] TRIS/HCl, pH 7.4, 0.25 M sucrose, 1 mM EDTA, 1 mM DTT, 10 μg/ml of leupeptin, 10 μg/ml of antipain, 20 μg/ml of pepstatin) and finally taken up in 10 ml of homogenization buffer. The lipocytes were homogenized in a Teflon-in-glass homogenizer (Braun-Melsungen) by means of 10 strokes at 1500 rpm and 15° C. The homogenisate was centrifuged (Sorvall SM24 tubes, 5000 rpm, 10 min, 4° C.). The lower layer between the overlying fatty layer and the pellet was removed and the centrifugation was repeated. The lower layer resulting from this was centrifuged again (Sorvall SM24 tubes, 20000 rpm, 45 min, 4° C.). The lower layer was removed and treated with 1 g of heparin-sepharose (Pharmacia-Biotech, CL-6B, washed 5× with 25 mM Tris/HCl, pH 7.4, 150 mM NaCl). After incubation for 60 min at 4° C. (shaken at intervals of 15 min), the batch was centrifuged (Sorvall SM24 tubes, 3000 rpm, 10 min, 4° C.). The supernatant was brought to pH 5.2 by addition of acetic acid and incubated at 4° C. for 30 min. The precipitates were collected by centrifugation (Sorvall SS34, 12000 rpm, 10 min, 4° C.) and suspended in 2.5 ml of 20 mM Tris/HCl, pH 7.0, 1 mM EDTA, 65 mM NaCl, 13% of sucrose, 1 mM DTT, 10 μg/ml of leupeptin/pepstatin/antipain. The suspension was dialyzed overnight at 4° C. against 25 mM Tris/HCl, pH 7.4, 50% of glycerol, 1 mM DTT, 10 μg/ml of leupeptin, pepstatin, and antipain, and then applied to a hydroxylapetite column (0.1 g per 1 ml of suspension, equilibrated with 10 mM potassium phosphate, pH 7.0, 30% of glycerol, 1 mM DTT). The column was washed with four volumes of equilibration buffer at a flow rate of 20 to 30 ml/h. The HSL was eluted with a volume of equilibration buffer which contained 0.5 M potassium phosphate, then dialyzed (see above), and was concentrated 5 to 10 times by ultrafiltration (Amicon Diaflo PM 10 Filter) at 4° C. The partially purified HSL could be stored at −70° C. for 4 to 6 weeks.
For the preparation of the substrates, 25-50 μCi of [^3H]trioleoylglycerol (in toluene), 6.8 μMol of unlabeled trioleoylglycerol and 0.6 mg of phospholipid (phosphatidylcholine/phosphatidylinositol 3:1 w/v) were mixed, dried by means of N2 and then taken up in 2 ml of 0.1 M KPi (pH 7.0) by ultrasonic treatment (Branson 250, microtips, setting 1-2, 2×1 min at a 1 min interval). After addition of 1 ml of KPi and fresh ultrasonic treatment (4×30 sec on ice at 30 sec intervals), 1 ml of 20% BSA (bovine serum albumin) (in KPi) was added (final concentration of trioleoylglycerol at 1.7 mM). For the reaction, 100 μl of substrate solution were pipetted into 100 μl of HSL solution (HSL prepared as above, diluted in 20 mM KPi, pH 7.0, 1 mM EDTA, 1 mM DTT, 0.02% BSA, 20 μg/ml of pepstatin, 10 μg/ml of leupeptin) and incubated at 37° C. for 30 min. After addition of 3.25 ml of methanol/chloroform/heptane (10:9:7) and of 1.05 ml 0.1 M K2CO3, 0.1 M boric acid (pH 10.5), the batch was mixed well and finally centrifuged (800×g, 20 min). After phase separation, one equivalent of the upper phase (1 ml) was removed and the radioactivity was determined by liquid scintillation measurement.
Substances were generally tested in four independent batches. The inhibition of the enzymatic activity of the HSL by a test substance was determined by the comparison with a noninhibited control reaction. The calculation of the IC50 value was carried out by means of an inhibitory curve using at least 10 concentrations of the test substance. […]

Data set [3] deals with T2, HSL from rats (Rattus norvegicus, UniProt P15304).
T2 construct: from tissue; host or cells: rat
T2 sequence (P15304 1-768 isoform P15304-2): T1 sequence (P15304 1-768 isoform P15304-2)
The data set is described as follows: Inhibition of HSL from rats with NBD as substrate. It counts as biochemical.

Data set [4] is described as follows: Solubility (characterization of the isolated substance).
The subject of data set [5] is lipolysis in rat adipocytes. The data set is described as follows: Inhibition of lipolysis in rat adipocytes. In kind it is cell-based. The following applies: Adipocyte.
Setting [6] is: trioleoylglycerol as substrate, read-out: IC50, inhibition of hormone-sensitive lipase from rats.
[7] abbreviates: NBD (4-chloro-7-nitrobenzo-2-oxa-1,3-diazole) as substrate, read-out: concentrations inhibiting HSL from rats.

pIC50: −log10 of the molar value. Where two headings read alike, the source gives them in different places.

Regarding `CO[P@]1(=O)OC[C@H]2COC(=O)C2=C(C)O1` [CGA 134 736], the selective lipase-inhibiting properties result in data set [1] is listed as “no selective lipase-inhibiting properties”.
On to `CCCCC(O)CCCCCCCCCCCOP1(=O)OCC2COC(=O)C2=C(C)O1` (stereo not shown) [Cyclipostin A], for which the pIC50 in data set [2] (setting [6]) is 7.70; in data set [3] (setting [7]), 8.00 to 8.40; in data set [5] it was around 6.70. Further, in data set [4], the “solubility in oxygen-containing organic solvents” value was “soluble”. Also, in data set [4], the “solubility in water and petroleum ether” value is “only slightly soluble”.
As to `CCCC(O)CCCCCCCCCCCCO[P@]1(=O)OC[C@H]2COC(=O)C2=C(C)O1` (stereo partly shown) [Cyclipostin B], in data set [4], the “solubility in oxygen-containing organic solvents” value was “soluble”; the “solubility in water and petroleum ether” value is listed as “only slightly soluble”.
For `CCC(=O)CCCCCCCCCCCCCOP1(=O)OC[C@H]2COC(=O)C2=C(C)O1` (stereo partly shown) [Cyclipostin F] the same measures were “soluble” and “only slightly soluble”.
Turning to `CCCCCCCCCCCCCCOP1(=O)OCC2COC(=O)C2=C(C)O1` (stereo not shown) [Cyclipostin N], in data set [2] (setting [6]), the pIC50 was 6.35. Further, in data set [4], the “solubility in oxygen-containing organic solvents” value was “soluble”; the “solubility in water and petroleum ether” value is “only slightly soluble”.
As to `CC1=C2C(=O)OCC2COP(=O)(OCCCCCCCCCCCCCC(C)C)O1` (stereo not shown) [Cyclipostin P2], the pIC50 in data set [2] is 7.40; in data set [3], 8.00 to 8.40; in data set [5] it was around 6.70. In data set [4], the “solubility in oxygen-containing organic solvents” value is recorded as “soluble”. In data set [4], the “solubility in water and petroleum ether” value was “only slightly soluble”.
For `CCCCCCCCCCCCCCCCOP1(=O)OCC2COC(=O)C2=C(C)O1` (stereo not shown) [Cyclipostin P] the same measures were 7.52, 8.00 to 8.40, around 6.70, “soluble” and “only slightly soluble”.
Consider `CC1=C2C(=O)OCC2COP(=O)(OCCCCCCCCCCCCC(C)C)O1` (stereo not shown) [Cyclipostin R2], for which, in data set [2] (setting [6]), the pIC50 is 6.66. In data set [4], the “solubility in oxygen-containing organic solvents” value is listed as “soluble”; the “solubility in water and petroleum ether” value is on record as “only slightly soluble”.
In the case of `CCCCCCCCCCCCCCCOP1(=O)OCC2COC(=O)C2=C(C)O1` (stereo not shown) [Cyclipostin R], the results for the pIC50 in data set [2] (setting [6]), in data set [3] (setting [7]) and in data set [5] were 8.00, 8.00 to 8.40 and around 6.70, respectively. Further, in data set [4], the “solubility in oxygen-containing organic solvents” value is recorded as “soluble”. Besides, the “solubility in water and petroleum ether” value in data set [4] is on record as “only slightly soluble”.
Regarding `CCCCCCCCCCCCCCCCOP1(=O)OCC2COC(=O)C2=C(CC)O1` (stereo not shown) [Cyclipostin S], in data set [2] (setting [6]), the pIC50 is 7.70. Also, in data set [4], the “solubility in oxygen-containing organic solvents” value is listed as “soluble”; the “solubility in water and petroleum ether” value was “only slightly soluble”.
Taken in the same sequence, the figures for `CCCC1=C2C(=O)OCC2COP(=O)(OCCCCCCCCCCCCCC(C)C)O1` (stereo not shown) [Cyclipostin T2] were 7.22, “soluble” and “only slightly soluble”.
Taken in the same sequence, the figures for `CCCCCCCCCCCCCCCCOP1(=O)OCC2COC(=O)C2=C(CCC)O1` (stereo not shown) [Cyclipostin T] were 6.70, “soluble” and “only slightly soluble”.
